# Biological target: T1, Ba/F3 cell EGFR Exon20 ins NPH (Homo sapiens, UniProt P00533, INS773NPH)
# T1 construct: expressed in transfected cells; host or cells: Ba/F3
# Test: Ba/F3 cell proliferation suppression, EGFR Exon20 ins NPH
# Type: cell-based
# Conditions: GI50 class; Ba/F3 cell line with NPH inserted at Exon20 of EGFR; 72 hours
# Method in brief: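 Cells were seeded 24 h before dosing and then treated for 72 hours with compound at final concentrations of 0.3 nM to 50 um. Live cells were measured by CellTiter-Glo luminescence, and GI50 values were derived from growth ratio relative to control across three repeats.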
row,SMILES,Ba/F3 (NPH) Activity
1,"C=CC(=O)Nc1cc(Nc2cc(N3OCC[C@@H]3c3cccc(C#N)c3)ncn2)c(OC)cc1N1CCN(CC)CC1 [compound 396, N-(5-((6-((R)-3-(3-cyanophenyl)isoxazolidine-2-yl)pyrimidine-4-yl)amino)-2-(4-ethylpiperazine-1-yl)-4-methoxyphenyl) acrylamide]",B (50 nM ≤ GI50 < 500 nM)
2,"C=CC(=O)Nc1cc(Nc2cc(N3OCC[C@@H]3c3ccc(F)c(F)c3)ncn2)c(OC)cc1N1CCC(N2CCN(C3CC3)CC2)CC1 [Example 161, N-(2-(4-(4-cyclopropylpiperazine-1-yl)piperidine-1-yl)-5-((6-((R)-3-(3,4-difluorophenyl)isoxazolidine-2-yl)pyrimidine-4-yl)amino)-4-methoxyphenyl) acrylamide]",A (GI50 < 50 nM)
3,"C=CCN1CCN(C2CCN(c3cc(OC)c(Nc4cc(N5OCC[C@@H]5c5cccc(Cl)c5C)ncn4)cc3NC(=O)C=C)CC2)CC1 [Example 213, N-(2-(4-(4-allylpiperazine-1-yl)piperidine-1-yl)-5-((6-((R)-3-(3-chloro-methylphenyl)isoxazolidine-2-yl)pyrimidine-4-yl)amino)-4-methoxyphenyl) acrylamide]",A (GI50 < 50 nM)
4,"C=CC(=O)Nc1cc(Nc2cc(N3OCC[C@@H]3c3cc(F)cc(F)c3)ncn2)c(OCC)cc1N1CCC(N2CCN(C3CC3)CC2)CC1 [Example 116, N-(2-(4-(4-cyclopropylpiperazine-1-yl)piperidine-1-yl)-5-((6-((R)-3-(3,5-difluorophenyl)isoxazolidine-2-yl)pyrimidine-4-yl)amino)-4-ethoxyphenyl) acrylamide]",C (500 nM ≤ GI50 < 5000 nM)
5,"C=CC(=O)Nc1cc(Nc2cc(N3OCC[C@@H]3c3cccc(F)c3F)ncn2)c(OC)cc1N1CCN(CC)CC1 [compound 297, N-(5-((6-((R)-3-(2,3-difluorophenyl)isoxazolidine-2-yl)pyrimidine-4-yl)amino)-2-(4-ethylpiperazine-1-yl)-4-methoxyphenyl) acrylamide]",A (GI50 < 50 nM)
6,"C=CC(=O)Nc1cc(Nc2cc(N3OCC[C@@H]3c3cccc(Cl)c3F)ncn2)c(OC)cc1N1CCC(N2CCN(C3CC3)CC2)CC1 [Example 62, N-(5-((6-((R)-3-(3-chloro-2-fluorophenyl)isoxazolidine-2-yl)pyrimidine-4-yl)amino)-2-(4-(4-cyclopropylpiperazine-1-yl)piperidine-1-yl)-4-methoxyphenyl) acrylamide]",A (GI50 < 50 nM)
7,"C=CC(=O)Nc1cc(Nc2cc(N3OCC[C@@H]3c3cc(F)cc(F)c3)ncn2)c(OC)cc1N1CCO[C@H](C)C1 [compound 338, N-(5-((6-((R)-3-(3,5-difluorophenyl)isoxazolidine-2-yl)pyrimidine-4-yl)amino)-4-methoxy-2-((R)-2-methylmorpholino)phenyl)acrylamide]",B (50 nM ≤ GI50 < 500 nM)
8,"C=CC(=O)Nc1cc(Nc2cc(N3OCC[C@@H]3c3cc(F)cc(F)c3)ncn2)c(OC)cc1N1CCC(N2CCN(C3CC3)C(C)(C)C2)CC1 [Example 106, N-(2-(4-(4-cyclopropyl-3,3-dimethylpiperazine-1-yl)piperidine-1-yl)-5-((6-((R)-3-(3,5-difluorophenyl)isoxazolidine-2-yl)pyrimidine-4-yl)amino)-4-methoxyphenyl) acrylamide]",A (GI50 < 50 nM)
9,"C=CC(=O)Nc1cc(Nc2cc(N3OCC[C@@H]3c3cccc(C#N)c3)ncn2)c(OC)cc1N1CCC(N2CCN(CCC)CC2)CC1 [compound 432, N-(5-((6-((R)-3-(3-cyanophenyl)isoxazolidine-2-yl)pyrimidine-4-yl)amino)-4-methoxy-2-(4-(4-propylpiperazine-1-yl)piperidine-1-yl)phenyl) acrylamide]",A (GI50 < 50 nM)
10,"C=CC(=O)Nc1cc(Nc2cc(N3OCC[C@@H]3c3ccc(F)c(F)c3)ncn2)c(OC)cc1N1CCN(CC)CC1 [compound 460, N-(5-((6-((R)-3-(3,4-difluorophenyl)isoxazolidine-2-yl)pyrimidine-4-yl)amino)-2-(4-ethylpiperazine-1-yl)-4-methoxyphenyl) acrylamide]",A (GI50 < 50 nM)

# Further lines, results first:
row,Ba/F3 (NPH) Activity,SMILES
1,B (50 nM ≤ GI50 < 500 nM),C=CC(=O)Nc1cc(Nc2cc(N3OCC[C@@H]3c3cccc(OC)c3)ncn2)c(OC)cc1N1CCC(N(C)C)CC1 [compound 731]
2,A (GI50 < 50 nM),"C=CC(=O)Nc1cc(Nc2cc(N3OCC[C@@H]3c3ccc(F)c(F)c3F)ncn2)c(OC)cc1N1CCC(N2C[C@@H]3C[C@H]2CO3)CC1 [compound 574, N-(2-(4-((1S,4S)-2-oxa-5-azabicyclo [2.2.1]heptane-5-yl)piperidine-1-yl)-4-methoxy-5-((6-((R)-3-(2,3,4-trifluorophenyl)isoxazolidine-2-yl)pyrimidine-4-yl)amino)phenyl)acrylamide]"
3,B (50 nM ≤ GI50 < 500 nM),"C=CC(=O)Nc1cc(Nc2cc(N3OCC[C@@H]3c3cccc(OC)c3)ncn2)c(OC)cc1N1CCN(C2COC2)CC1 [compound 730, N-(4-methoxy-5-((6-((R)-3-(3-methoxyphenyl)isoxazolidine-2-yl)pyrimidine-4-yl)amino)-2-(4-(oxetane-3-yl)piperazine-1-yl)phenyl) acrylamide]"
4,A (GI50 < 50 nM),"C=CC(=O)Nc1cc(Nc2cc(N3OCC[C@@H]3Cc3cccc(Cl)c3Cl)ncn2)c(OC)cc1N1CCC(N2C[C@H]3C[C@@H]2CO3)CC1 [compound 1014, N-(2-(4-((1R,4R)-2-oxa-5-azabicyclo [2.2.1]heptane-5-yl)piperidine-1-yl)-5-((6-((S)-3-(2,3-dichlorobenzyl)isoxazolidine-2-yl)pyrimidine-4-yl)amino)-4-methoxyphenyl) acrylamide]"
5,B (50 nM ≤ GI50 < 500 nM),"C=CC(=O)Nc1cc(Nc2cc(N3OCC[C@@H]3c3cc(F)cc(Cl)c3F)ncn2)c(OC)cc1N1CCN(C2CC2)CC1 [compound 939, N-(5-((6-((R)-3-(3-chloro-2,5-difluorophenyl)isoxazolidine-2-yl)pyrimidine-4-yl)amino)-2-(4-cyclopropylpiperazine-1-yl)-4-methoxyphenyl) acrylamide]"
6,A (GI50 < 50 nM),"C=CC(=O)Nc1cc(Nc2cc(N3OCC[C@@H]3c3ccc(F)c(Cl)c3F)ncn2)c(OC)cc1N1CCC(N(C)C)CC1 [compound 638, N-(5-((6-((R)-3-(3-chloro-2,4-difluorophenyl)isoxazolidine-2-yl)pyrimidine-4-yl)amino)-2-(4-(dimethylamino)piperidine-1-yl)-4-methoxyphenyl) acrylamide]"
7,A (GI50 < 50 nM),"C=CC(=O)Nc1cc(Nc2cc(N3OCC[C@@H]3Cc3cccc(F)c3)ncn2)c(OC)cc1N1CCC(N2C[C@H]3C[C@@H]2CO3)CC1 [compound 998, N-(2-(4-((1R,4R)-2-oxa-5-azabicyclo [2.2.1]heptane-5-yl)piperidine-1-yl)-5-((6-((S)-3-(3-fluorobenzyl)isoxazolidine-2-yl)pyrimidine-4-yl)amino)-4-methoxyphenyl) acrylamide]"
8,A (GI50 < 50 nM),"C=CC(=O)Nc1cc(Nc2cc(N3OCC[C@@H]3c3ccc(F)c(F)c3F)ncn2)c(OC)cc1N1CCC(N2C[C@@H](C)O[C@@H](C)C2)CC1 [compound 576, N-(2-(4-((2S,6R)-2,6-dimethylmorpholino)piperidine-1-yl)-4-methoxy-5-((6-((R)-3-(2,3,4-trifluorophenyl)isoxazolidine-2-yl)pyrimidine-4-yl)amino)phenyl)acrylamide]"
9,A (GI50 < 50 nM),"C=CC(=O)Nc1cc(Nc2cc(N3OCC[C@@H]3c3cccc(F)c3)ncn2)c(OC)cc1N1CCC(N2C[C@@H]3C[C@H]2CN3C)CC1 [compound 837, N-(5-((6-((R)-3-(3-fluorophenyl)isoxazolidine-2-yl)pyrimidine-4-yl)amino)-4-methoxy-2-(4-((1S, 4S)-5-methyl-2,5-diazabicyclo[2.2.1]heptane-2-yl)piperidine-1-yl)phenyl)acrylamide]"
10,C (500 nM ≤ GI50 < 5000 nM),"C=CC(=O)Nc1cc(Nc2cc(N3OCC[C@H]3Cc3ccccc3)ncn2)c(OC)cc1N1CCN(C)CC1 [compound 968, N-(5-((6-((R)-3-benzylisoxazolidine-2-yl)pyrimidine-4-yl)amino)-4-methoxy-2-(4-methylpiperazine-1-yl)phenyl)acrylamide]"
11,A (GI50 < 50 nM),"C=CC(=O)Nc1cc(Nc2cc(N3OCC[C@@H]3c3ccc(F)cc3)ncn2)c(OC)cc1N1CCC(N2C[C@H]3C[C@@H]2CO3)CC1 [compound 813, N-(2-(4-((1R,4R)-2-oxa-5-azabicyclo [2.2.1]heptane-5-yl)piperidine-1-yl)-5-((6-((R)-3-(4-fluorophenyl)isoxazolidine-2-yl)pyrimidine-4-yl)amino)-4-methoxyphenyl) acrylamide]"
12,A (GI50 < 50 nM),"C=CC(=O)Nc1cc(Nc2cc(N3OCC[C@@H]3c3cccc(Cl)c3C)ncn2)c(OC)cc1N1CCC(N2CCO[C@H](C)C2)CC1 [compound 530, N-(5-((6-((R)-3-(3-chloro-2-methylphenyl)isoxazolidine-2-yl)pyrimidine-4-yl)amino)-4-methoxy-2-(4-((R)-2-methylmorpholino)piperidine-1-yl)phenyl) acrylamide]"
13,B (50 nM ≤ GI50 < 500 nM),"C=CC(=O)Nc1cc(Nc2cc(N3OCC[C@@H]3c3cc(F)cc(F)c3)ncn2)c(OC)cc1N1CCC(N2C[C@H]3CC[C@@H](C2)O3)CC1 [compound 759, N-(2-(4-((1R,5S)-8-oxa-3-azabicyclo [3.2.1]octan-3-yl)piperidine-1-yl)-5-((6-((R)-3-(3,5-difluorophenyl)isoxazolidine-2-yl)pyrimidine-4-yl)amino)-4-methoxyphenyl) acrylamide]"
